Results on nine molecules are retold here after US10336762B2 (priority 2017, dated 2019).

A value given as a limit tells only on which side of the number the result lay.

A word on the IC50: it is the midpoint of a concentration-inhibition curve. High values mean a need for much substance, low ones inhibition by little substance. By EC50 is commonly meant the concentration needed to bring the measured effect to its halfway point.

In experiment [1] the target is IRAK4 enzyme (Homo sapiens (Human), UniProt Q9NWZ3). Put plainly: biochemical. It is filed as biochemical. Conditions: IRAK4 enzyme, TR-FRET (HTRF), 500 μM ATP. In general terms: Time-resolved FRET reads energy transfer from a long-lived donor to a nearby acceptor.
In experiment [2] the test system is TNFα. Put plainly: cells. It is filed as cell-based, human. Particulars: Homo sapiens, Monocyte, LPS-stimulated human monocytes, TNFα content; read-out: EC50 TNF.

Sequence of IRAK4 enzyme (Q9NWZ3 whole entry): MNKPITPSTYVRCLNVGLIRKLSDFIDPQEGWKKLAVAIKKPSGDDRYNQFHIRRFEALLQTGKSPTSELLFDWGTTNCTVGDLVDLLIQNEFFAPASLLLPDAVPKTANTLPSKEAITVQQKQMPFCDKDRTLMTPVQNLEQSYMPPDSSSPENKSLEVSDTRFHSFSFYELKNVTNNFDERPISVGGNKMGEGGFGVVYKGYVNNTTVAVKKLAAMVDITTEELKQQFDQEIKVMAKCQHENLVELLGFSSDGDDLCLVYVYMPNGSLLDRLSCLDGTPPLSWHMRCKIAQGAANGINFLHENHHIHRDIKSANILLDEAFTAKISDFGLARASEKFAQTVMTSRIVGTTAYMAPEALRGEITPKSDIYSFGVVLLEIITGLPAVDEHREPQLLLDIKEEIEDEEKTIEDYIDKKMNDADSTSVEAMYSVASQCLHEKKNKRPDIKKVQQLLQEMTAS

In the case of `CNC(=O)NC[C@H]1C[C@H](Nc2cc(-c3ccc4cc(C#N)cnn34)ncc2C(=O)NC[C@@H](F)C(C)(C)O)C1` [Example 788, 6-(3-cyanopyrrolo[1,2-b]pyridazin-7-yl)-N-((R)-2-fluoro-3-hydroxy-3-methylbutyl)-4-(((1r,3R)-3-((3-methylureido)methyl)cyclobutyl)amino) nicotinamide], the IC50 in experiment [1] was under 1 nM. The EC50 in experiment [2] was 90 nM.

`CN1CCN(C(=O)CNC(=O)c2cnc(-c3ccc4cc(C#N)cnn34)cc2NC23CCC(O)(CC2)CC3)CC1` [Example 789, 6-(3-cyanopyrrolo[1,2-b]pyridazin-7-yl)-4-((4-hydroxybicyclo[2.2.2]octan-1-yl)amino)-N-(2-(4-methylpiperazin-1-yl)-2-oxoethyl)nicotinamide]: the concentration for half-maximal inhibition (IC50) in experiment [1] was under 1 nM. Further, in experiment [2], the EC50 turned out to be 20 nM.

Turning to `N#Cc1cnn2c(-c3cc(NC45CCC(O)(CC4)CC5)c(C(=O)NCC(=O)N4CCCC4)cn3)ccc2c1` [Example 790, 6-(3-cyanopyrrolo[1,2-b]pyridazin-7-yl)-4-((4-hydroxybicyclo[2.2.2]octan-1-yl)amino)-N-(2-oxo-2-(pyrrolidin-1-yl)ethyl)nicotinamide], in experiment [1], the IC50 is under 1 nM. The concentration giving a half-maximal response (EC50) in experiment [2] came out at 21 nM.

Consider `COC1CN(C(=O)CNC(=O)c2cnc(-c3ccc4cc(C#N)cnn34)cc2NC23CCC(O)(CC2)CC3)C1` [Example 791, 6-(3-cyanopyrrolo[1,2-b]pyridazin-7-yl)-4-((4-hydroxybicyclo[2.2.2]octan-1-yl)amino)-N-(2-(3-methoxyazetidin-1-yl)-2-oxoethyl)nicotinamide], for which the IC50 in experiment [1] amounted to 1 nM. Also, the EC50 in experiment [2] came out at 45 nM.

Molecule `N#Cc1cnn2c(-c3cc(NC45CCC(O)(CC4)CC5)c(C(=O)NCC(=O)N4CCCCC4)cn3)ccc2c1` [Example 792, 6-(3-cyanopyrrolo[1,2-b]pyridazin-7-yl)-4-((4-hydroxybicyclo[2.2.2]octan-1-yl)amino)-N-(2-oxo-2-(piperidin-1-yl)ethyl)nicotinamide] returned an IC50 in experiment [1] of 2 nM. For the same molecule, the EC50 in experiment [2] came out at 86 nM.

Turning to `CN1CCN(C(=O)NC[C@H]2C[C@H](Nc3cc(-c4ccc5cc(C#N)cnn45)ncc3C(=O)NC[C@@H](F)C(C)(C)O)C2)CC1` [Example 793, N-(((1R,3r)-3-((2-(3-cyanopyrrolo[1,2-b]pyridazin-7-yl)-5-(((R)-2-fluoro-3-hydroxy-3-methylbutyl)carbamoyl)pyridin-4-yl)amino)cyclobutyl)methyl)-4-methylpiperazine-1-carboxamide], in experiment [1], half-maximal inhibition (IC50) was put at 3 nM. Also, the EC50 in experiment [2] turned out to be 598 nM.

`CN1CCC(C(=O)NC[C@H]2C[C@H](Nc3cc(-c4ccc5cc(C#N)cnn45)ncc3C(=O)NC[C@@H](F)C(C)(C)O)C2)CC1` [Example 794, 6-(3-cyanopyrrolo[1,2-b]pyridazin-7-yl)-N-((R)-2-fluoro-3-hydroxy-3-methylbutyl)-4-(((1r,3R)-3-((1-methylpiperidine-4-carboxamido)methyl)cyclo-butyl)amino)nicotinamide] yielded an IC50 in experiment [1] of 2 nM. In experiment [2], the EC50 was 997 nM.

In experiment [1], `CN1CC(C(=O)NC[C@H]2C[C@H](Nc3cc(-c4ccc5cc(C#N)cnn45)ncc3C(=O)NC[C@@H](F)C(C)(C)O)C2)C1` [Example 795, 6-(3-cyanopyrrolo[1,2-b]pyridazin-7-yl)-N-((R)-2-fluoro-3-hydroxy-3-methylbutyl)-4-(((1r,3R)-3-((1-methylazetidine-3-carboxamido)methyl)cyclobutyl)amino) nicotinamide] had an IC50 of 7 nM. In experiment [2], the EC50 is over 10000 nM.

`N#Cc1cnn2c(-c3cc(NC45CCC(O)(CC4)CC5)c(C(=O)NCC(=O)N4CCN(C5COC5)CC4)cn3)ccc2c1` [Example 796, 6-(3-cyanopyrrolo[1,2-b]pyridazin-7-yl)-4-((4-hydroxybicyclo[2.2.2]octan-1-yl)amino)-N-(2-(4-(oxetan-3-yl)piperazin-1-yl)-2-oxoethyl)nicotinamide] displayed a half-maximal inhibitory concentration (IC50) in experiment [1] of 2 nM. In addition, in experiment [2], the EC50 was found to be 75 nM.
